As a reminder, the IC50 is the concentration that gives 50% inhibition. Higher therefore signals lower potency.

The record followed here is ChEMBL document CHEMBL1148653, “Synthesis, structural reassignment, and biological activity of type B MAO inhibitors based on the 5H-indeno[1,2-c]pyridazin-5-one core” (J Med Chem, 2006).

For data set [1], the target named is T1, Amine oxidase [flavin-containing] A (Homo sapiens, UniProt P21397).
T1 sequence (P21397 whole entry): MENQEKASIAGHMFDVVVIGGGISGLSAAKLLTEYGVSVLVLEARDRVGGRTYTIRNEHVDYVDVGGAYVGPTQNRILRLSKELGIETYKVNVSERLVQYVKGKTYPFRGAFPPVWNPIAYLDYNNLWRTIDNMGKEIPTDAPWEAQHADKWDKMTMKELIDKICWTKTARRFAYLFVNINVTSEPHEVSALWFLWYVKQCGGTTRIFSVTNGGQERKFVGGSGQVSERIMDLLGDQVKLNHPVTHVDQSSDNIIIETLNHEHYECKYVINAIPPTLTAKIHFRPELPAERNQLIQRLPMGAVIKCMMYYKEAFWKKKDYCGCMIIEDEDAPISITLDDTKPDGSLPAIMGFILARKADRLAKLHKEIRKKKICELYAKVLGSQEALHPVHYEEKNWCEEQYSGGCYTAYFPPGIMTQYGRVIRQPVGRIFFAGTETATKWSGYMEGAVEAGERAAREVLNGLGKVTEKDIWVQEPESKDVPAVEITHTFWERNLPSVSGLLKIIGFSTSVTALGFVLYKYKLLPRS
The experiment in a line: Inhibition of MAO-A in human placental mitochondria at 5 uM. Also on record: species or system Placenta.

Data set [2] addresses T2, Amine oxidase [flavin-containing] B (Rattus norvegicus, UniProt P19643).
T2 sequence (P19643 whole entry): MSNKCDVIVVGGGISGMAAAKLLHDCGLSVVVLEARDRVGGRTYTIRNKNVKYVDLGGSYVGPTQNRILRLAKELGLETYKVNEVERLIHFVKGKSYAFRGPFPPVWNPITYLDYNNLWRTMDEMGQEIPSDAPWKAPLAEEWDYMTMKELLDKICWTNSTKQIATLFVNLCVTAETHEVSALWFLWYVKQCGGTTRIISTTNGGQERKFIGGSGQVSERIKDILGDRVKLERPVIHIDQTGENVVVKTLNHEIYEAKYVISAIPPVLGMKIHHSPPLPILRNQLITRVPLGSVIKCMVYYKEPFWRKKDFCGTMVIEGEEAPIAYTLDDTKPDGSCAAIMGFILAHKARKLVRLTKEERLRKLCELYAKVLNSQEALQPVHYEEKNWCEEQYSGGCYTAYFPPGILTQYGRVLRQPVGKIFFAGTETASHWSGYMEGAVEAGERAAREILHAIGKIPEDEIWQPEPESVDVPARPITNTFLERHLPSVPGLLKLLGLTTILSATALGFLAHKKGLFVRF
The experiment in a line: Inhibition of MAO-B in rat brain mitochondria.

Data set [3] addresses T3, Amine oxidase [flavin-containing] A (Rattus norvegicus, UniProt P21396).
T3 sequence (P21396 whole entry): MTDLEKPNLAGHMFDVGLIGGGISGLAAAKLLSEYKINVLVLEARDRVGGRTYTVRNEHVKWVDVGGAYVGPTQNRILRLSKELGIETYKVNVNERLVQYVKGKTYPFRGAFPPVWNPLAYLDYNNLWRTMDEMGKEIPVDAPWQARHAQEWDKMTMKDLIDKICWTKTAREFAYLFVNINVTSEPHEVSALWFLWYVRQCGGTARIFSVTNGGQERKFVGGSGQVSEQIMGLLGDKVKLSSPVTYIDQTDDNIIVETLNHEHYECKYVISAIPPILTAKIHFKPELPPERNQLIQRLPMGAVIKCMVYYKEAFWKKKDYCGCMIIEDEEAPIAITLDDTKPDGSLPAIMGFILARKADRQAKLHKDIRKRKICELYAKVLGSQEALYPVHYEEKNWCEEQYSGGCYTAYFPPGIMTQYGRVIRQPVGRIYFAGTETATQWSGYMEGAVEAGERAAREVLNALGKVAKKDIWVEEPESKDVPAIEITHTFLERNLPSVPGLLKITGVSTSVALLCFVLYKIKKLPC
The experiment in a line: Inhibition of MAO-A in rat brain mitochondria.

For `COc1ccc2c(c1)C(=O)c1cc(-c3cccc(C(F)(F)F)c3)nnc1-2`, in data set [1], the Inhibition entry is “Not Active”.
With `Cc1cc2c(nn1)-c1cc(OCc3ccccc3)ccc1C2=O`, the IC50 is 0.17 µM in data set [2] and above 1 µM in data set [3].
With `COc1ccc2c(c1)-c1nnc(-c3cccc(C(F)(F)F)c3)cc1C2=O`, the Inhibition entry in data set [1] is reported as “Not Active”.
Regarding `COc1ccc2c(c1)-c1nnc(C)cc1C2=O`, the IC50 in data set [2] and in data set [3] was above 1 µM throughout.
